Experimental data from ChEMBL document CHEMBL4007445, “Design, synthesis, and biological evaluation of imidazo[1,2-b]pyridazine derivatives as mTOR inhibitors” (Eur J Med Chem, 2017).
Active and inactive are the calls of the source. No cut-off for these calls is given here.

Key:
[1] = test system: A549; assay: Antiproliferative activity against human A549 cells after 72 hrs by SRB assay; format: functional, cell-based; conditions: A549, 72 h
[2] = test system: A-375; assay: Antiproliferative activity against human A375 cells after 72 hrs by SRB assay; format: functional, cell-based; conditions: A-375, 72 h
[3] = test system: MCF7; assay: Antiproliferative activity against human MCF7 cells after 72 hrs by SRB assay; format: functional, cell-based; conditions: MCF7, 72 h
[4] = Antiproliferative activity against human U87 cells after 72 hrs by SRB assay; format: functional, cell-based, U-87MG ATCC; conditions: U-87 MG
[5] = test system: NCI-H460; assay: Antiproliferative activity against human NCI-H460 cells after 72 hrs by SRB assay; format: functional, cell-based; conditions: NCI-H460, 72 h
[6] = test system: HEK293; assay: Antiproliferative activity against HEK293 cells after 72 hrs by SRB assay; format: cell-based; conditions: Homo sapiens, HEK293, 72 h
[7] = target: PI3-kinase p110-alpha/p85-alpha (Homo sapiens) (UniProt P27986+P42336); assay: Inhibition of human PI3K p110alpha/p85alpha at 10 uM using phosphatidylinositol 4,5-bisphosphate as substrate after 30 mins by HTRF assay relative to control; format: protein-complex assay
[8] = target: PI3K p110 beta/p85 alpha (Homo sapiens) (UniProt P27986+P42338); assay: Inhibition of human PI3K p110beta/p85alpha at 10 uM using phosphatidylinositol 4,5-bisphosphate as substrate after 30 mins by HTRF assay relative to control; format: protein-complex assay
[9] = target: Phosphatidylinositol 4,5-bisphosphate 3-kinase catalytic subunit gamma isoform (Homo sapiens) (UniProt P48736); assay: Inhibition of human PI3K p120gamma at 10 uM using phosphatidylinositol 4,5-bisphosphate as substrate after 30 mins by HTRF assay relative to control
[10] = target: PI3-kinase p110-delta/p85-alpha (Homo sapiens) (UniProt P27986+O00329); assay: Inhibition of human PI3K p110delta/p85alpha at 10 uM using phosphatidylinositol 4,5-bisphosphate as substrate after 30 mins by HTRF assay relative to control; format: protein-complex assay
[11] = target: PI3-kinase p110-alpha/p85-alpha (Homo sapiens, UniProt P42336); assay: Inhibition of human PI3K p110alpha/p85alpha using phosphatidylinositol 4,5-bisphosphate as substrate after 30 mins by HTRF assay; format: protein-complex assay
[12] = target: T1, Serine/threonine-protein kinase mTOR (Homo sapiens, UniProt P42345); assay: Inhibition of human N-terminal FLAG-tagged mTOR (1362-end residues) in presence of [gamma33P]ATP after 40 mins
[13] = target: T1, Serine/threonine-protein kinase mTOR; assay: Inhibition of mTOR in human A549 cells assessed as reduction in p70S6K phosphorylation at T389 residue after 2 hrs by HTRF method; format: cell-based
[14] = test system: A549; assay: Inhibition of mTORC1 in human A549 cells assessed as reduction in S6 phosphorylation at […] residues at 5 uM up to 2 hrs by Western blot method; format: cell-based
[15] = test system: A549; assay: Inhibition of mTORC2 in human A549 cells assessed as reduction in Akt phosphorylation at Ser-473 residue at 5 uM up to 2 hrs by Western blot method; format: cell-based
[16] = test system: A549; assay: Cell cycle arrest in human A549 cells assessed as accumulation at G1 phase at 10 uM after 48 hrs by propidium iodide staining based flow cytometry (reference value: 40.21%); format: functional
[17] = test system: A549; assay: Cell cycle arrest in human A549 cells assessed as accumulation at G2 phase at 10 uM after 48 hrs by propidium iodide staining based flow cytometry (reference value: 14.49%); format: functional
[18] = test system: A549; assay: Cell cycle arrest in human A549 cells assessed as accumulation at S phase at 10 uM after 48 hrs by propidium iodide staining based flow cytometry (reference value: 45.31%); format: functional
[19] = test system: A549; assay: Induction of apoptosis in human A549 cells assessed as live cells at 10 uM after 48 hrs by Annexin V-FITC/propidium iodide staining based flow cytometry (reference value: 90%); format: functional
[20] = test system: A549; assay: Induction of apoptosis in human A549 cells assessed as early apoptotic cells at 10 uM after 48 hrs by Annexin V-FITC/propidium iodide staining based flow cytometry (reference value: 3.6%); format: functional
[21] = test system: A549; assay: Induction of apoptosis in human A549 cells assessed as late apoptotic cells at 10 uM after 48 hrs by Annexin V-FITC/propidium iodide staining based flow cytometry (reference value: 6.3%); format: functional
[22] = test system: A549; assay: Induction of apoptosis in human A549 cells assessed as necrotic cells at 10 uM after 48 hrs by Annexin V-FITC/propidium iodide staining based flow cytometry (reference value: 0.1%); format: functional
[23] = test system: A549; assay: Antitumor activity against human A549 cells xenografted in Balb/c nude mouse assessed sa tumor growth inhibition at 30 mg/kg, iv administered 7 times on day 14, 16, 18, 21, 23, 25, 28 post tumor implantation measured after 1 week relative to control; format: functional; conditions: read-out: TGI
[24] = test system: Mus musculus; assay: Toxicity in Balb/c nude mouse xenografted with human A549 cells assessed as changes in body weight at 5 to 30 mg/kg, iv administered 7 times on day 14, 16, 18, 21, 23, 25, 28 post tumor implantation; format: organism-based; conditions: in vivo
[25] = test system: Mus musculus; assay: Toxicity in Balb/c nude mouse xenografted with human A549 cells assessed as mortality at 5 to 30 mg/kg, iv administered 7 times on day 14, 16, 18, 21, 23, 25, 28 post tumor implantation; format: organism-based; conditions: in vivo

Phosphatidylinositol 4,5-bisphosphate 3-kinase catalytic subunit gamma isoform (Homo sapiens), sequence (P48736 whole entry, looked up, canonical isoform): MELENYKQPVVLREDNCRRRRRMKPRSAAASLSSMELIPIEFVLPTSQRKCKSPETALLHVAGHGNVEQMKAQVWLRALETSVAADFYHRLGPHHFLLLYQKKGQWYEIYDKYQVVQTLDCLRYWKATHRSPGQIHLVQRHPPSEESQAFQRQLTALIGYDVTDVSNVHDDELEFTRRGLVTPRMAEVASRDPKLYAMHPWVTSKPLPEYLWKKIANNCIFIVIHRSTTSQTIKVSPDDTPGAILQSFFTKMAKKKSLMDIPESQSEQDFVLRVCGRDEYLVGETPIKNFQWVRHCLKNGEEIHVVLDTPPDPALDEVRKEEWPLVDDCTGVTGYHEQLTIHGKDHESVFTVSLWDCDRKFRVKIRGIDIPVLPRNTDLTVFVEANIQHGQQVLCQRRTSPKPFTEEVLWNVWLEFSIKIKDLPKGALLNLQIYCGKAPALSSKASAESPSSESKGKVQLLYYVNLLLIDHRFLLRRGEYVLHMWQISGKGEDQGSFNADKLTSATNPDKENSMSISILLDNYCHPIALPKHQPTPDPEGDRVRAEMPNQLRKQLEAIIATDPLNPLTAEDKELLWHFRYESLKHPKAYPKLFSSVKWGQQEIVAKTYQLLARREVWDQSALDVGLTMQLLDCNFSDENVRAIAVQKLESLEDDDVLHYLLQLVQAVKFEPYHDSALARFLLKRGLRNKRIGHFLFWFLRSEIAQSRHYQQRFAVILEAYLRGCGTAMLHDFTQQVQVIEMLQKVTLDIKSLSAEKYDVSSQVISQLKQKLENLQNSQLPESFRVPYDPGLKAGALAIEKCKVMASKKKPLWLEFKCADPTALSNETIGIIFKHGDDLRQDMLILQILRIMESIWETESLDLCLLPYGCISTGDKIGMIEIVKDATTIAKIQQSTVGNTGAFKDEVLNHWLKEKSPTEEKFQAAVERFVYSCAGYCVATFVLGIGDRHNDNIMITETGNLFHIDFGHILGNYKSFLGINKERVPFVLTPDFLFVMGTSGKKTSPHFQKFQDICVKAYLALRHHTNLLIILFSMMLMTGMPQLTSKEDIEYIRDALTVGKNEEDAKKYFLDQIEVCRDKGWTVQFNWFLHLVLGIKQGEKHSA
PI3-kinase p110-alpha/p85-alpha, sequence (P27986 whole entry): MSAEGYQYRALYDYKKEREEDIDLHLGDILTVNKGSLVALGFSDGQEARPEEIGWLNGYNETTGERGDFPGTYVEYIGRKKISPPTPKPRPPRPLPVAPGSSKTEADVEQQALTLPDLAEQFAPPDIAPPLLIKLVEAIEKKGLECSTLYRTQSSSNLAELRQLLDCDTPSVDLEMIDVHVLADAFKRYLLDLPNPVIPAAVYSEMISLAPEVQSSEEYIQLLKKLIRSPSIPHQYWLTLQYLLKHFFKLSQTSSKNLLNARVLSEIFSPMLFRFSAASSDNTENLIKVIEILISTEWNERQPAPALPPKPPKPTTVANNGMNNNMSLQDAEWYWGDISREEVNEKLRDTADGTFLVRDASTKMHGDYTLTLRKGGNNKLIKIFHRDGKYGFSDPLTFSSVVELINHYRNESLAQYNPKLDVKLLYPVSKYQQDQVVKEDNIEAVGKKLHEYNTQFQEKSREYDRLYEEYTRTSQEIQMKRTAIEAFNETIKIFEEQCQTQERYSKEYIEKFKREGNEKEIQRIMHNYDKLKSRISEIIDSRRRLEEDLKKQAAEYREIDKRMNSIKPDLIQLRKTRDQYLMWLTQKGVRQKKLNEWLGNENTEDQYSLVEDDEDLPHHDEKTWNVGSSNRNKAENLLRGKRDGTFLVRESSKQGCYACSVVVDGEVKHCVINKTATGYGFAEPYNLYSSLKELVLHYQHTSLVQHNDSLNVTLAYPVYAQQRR
PI3-kinase p110-alpha/p85-alpha, sequence (P42336 whole entry): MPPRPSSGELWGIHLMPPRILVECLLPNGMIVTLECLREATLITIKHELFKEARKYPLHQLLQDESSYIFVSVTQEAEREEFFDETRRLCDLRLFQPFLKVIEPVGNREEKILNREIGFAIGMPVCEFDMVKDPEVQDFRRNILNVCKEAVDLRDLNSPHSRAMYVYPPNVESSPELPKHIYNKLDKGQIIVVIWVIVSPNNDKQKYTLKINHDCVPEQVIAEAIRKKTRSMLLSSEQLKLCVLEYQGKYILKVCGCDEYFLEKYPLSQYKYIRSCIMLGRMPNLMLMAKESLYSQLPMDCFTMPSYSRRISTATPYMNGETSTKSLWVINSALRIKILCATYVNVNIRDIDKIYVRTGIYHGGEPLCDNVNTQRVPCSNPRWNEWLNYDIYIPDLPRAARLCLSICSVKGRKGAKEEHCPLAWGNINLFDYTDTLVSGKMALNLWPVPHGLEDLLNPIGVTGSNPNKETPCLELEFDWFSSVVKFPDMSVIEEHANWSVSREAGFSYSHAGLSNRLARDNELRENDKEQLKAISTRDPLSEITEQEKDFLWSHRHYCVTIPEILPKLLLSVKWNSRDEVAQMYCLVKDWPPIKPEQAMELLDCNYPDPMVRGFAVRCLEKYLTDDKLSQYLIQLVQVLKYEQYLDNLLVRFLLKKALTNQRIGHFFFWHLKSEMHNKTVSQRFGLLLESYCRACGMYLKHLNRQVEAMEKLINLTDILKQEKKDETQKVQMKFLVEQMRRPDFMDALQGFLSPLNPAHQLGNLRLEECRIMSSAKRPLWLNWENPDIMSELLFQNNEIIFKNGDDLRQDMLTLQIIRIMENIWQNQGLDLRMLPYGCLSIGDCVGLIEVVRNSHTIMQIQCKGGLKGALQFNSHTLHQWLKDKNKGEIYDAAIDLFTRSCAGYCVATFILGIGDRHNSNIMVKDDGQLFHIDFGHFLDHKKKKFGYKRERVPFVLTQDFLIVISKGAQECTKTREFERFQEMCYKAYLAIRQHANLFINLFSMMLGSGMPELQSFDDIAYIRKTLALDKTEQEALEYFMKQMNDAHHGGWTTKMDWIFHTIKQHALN
PI3K p110 beta/p85 alpha (Homo sapiens), sequence (P27986 2-724 limits assumed): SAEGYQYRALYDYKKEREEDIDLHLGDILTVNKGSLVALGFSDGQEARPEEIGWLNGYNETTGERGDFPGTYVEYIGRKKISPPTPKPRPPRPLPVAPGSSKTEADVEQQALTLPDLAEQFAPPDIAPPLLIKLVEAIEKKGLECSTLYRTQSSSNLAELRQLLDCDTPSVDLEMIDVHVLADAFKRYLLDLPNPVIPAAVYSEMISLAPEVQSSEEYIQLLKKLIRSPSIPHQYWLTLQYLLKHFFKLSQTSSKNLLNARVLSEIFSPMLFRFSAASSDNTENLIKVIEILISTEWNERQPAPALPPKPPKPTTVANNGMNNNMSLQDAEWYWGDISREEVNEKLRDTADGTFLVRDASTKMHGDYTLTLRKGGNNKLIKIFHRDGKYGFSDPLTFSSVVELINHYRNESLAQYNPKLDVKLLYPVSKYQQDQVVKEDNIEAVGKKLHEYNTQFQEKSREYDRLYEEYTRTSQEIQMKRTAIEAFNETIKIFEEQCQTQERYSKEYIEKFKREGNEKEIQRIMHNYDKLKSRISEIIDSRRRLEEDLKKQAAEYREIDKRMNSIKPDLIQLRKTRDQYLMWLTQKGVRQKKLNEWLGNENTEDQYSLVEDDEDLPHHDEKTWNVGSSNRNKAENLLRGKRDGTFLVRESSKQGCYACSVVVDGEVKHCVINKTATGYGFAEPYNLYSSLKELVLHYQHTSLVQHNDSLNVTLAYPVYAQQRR
PI3K p110 beta/p85 alpha (Homo sapiens), sequence (P42338 whole entry partner, canonical isoform): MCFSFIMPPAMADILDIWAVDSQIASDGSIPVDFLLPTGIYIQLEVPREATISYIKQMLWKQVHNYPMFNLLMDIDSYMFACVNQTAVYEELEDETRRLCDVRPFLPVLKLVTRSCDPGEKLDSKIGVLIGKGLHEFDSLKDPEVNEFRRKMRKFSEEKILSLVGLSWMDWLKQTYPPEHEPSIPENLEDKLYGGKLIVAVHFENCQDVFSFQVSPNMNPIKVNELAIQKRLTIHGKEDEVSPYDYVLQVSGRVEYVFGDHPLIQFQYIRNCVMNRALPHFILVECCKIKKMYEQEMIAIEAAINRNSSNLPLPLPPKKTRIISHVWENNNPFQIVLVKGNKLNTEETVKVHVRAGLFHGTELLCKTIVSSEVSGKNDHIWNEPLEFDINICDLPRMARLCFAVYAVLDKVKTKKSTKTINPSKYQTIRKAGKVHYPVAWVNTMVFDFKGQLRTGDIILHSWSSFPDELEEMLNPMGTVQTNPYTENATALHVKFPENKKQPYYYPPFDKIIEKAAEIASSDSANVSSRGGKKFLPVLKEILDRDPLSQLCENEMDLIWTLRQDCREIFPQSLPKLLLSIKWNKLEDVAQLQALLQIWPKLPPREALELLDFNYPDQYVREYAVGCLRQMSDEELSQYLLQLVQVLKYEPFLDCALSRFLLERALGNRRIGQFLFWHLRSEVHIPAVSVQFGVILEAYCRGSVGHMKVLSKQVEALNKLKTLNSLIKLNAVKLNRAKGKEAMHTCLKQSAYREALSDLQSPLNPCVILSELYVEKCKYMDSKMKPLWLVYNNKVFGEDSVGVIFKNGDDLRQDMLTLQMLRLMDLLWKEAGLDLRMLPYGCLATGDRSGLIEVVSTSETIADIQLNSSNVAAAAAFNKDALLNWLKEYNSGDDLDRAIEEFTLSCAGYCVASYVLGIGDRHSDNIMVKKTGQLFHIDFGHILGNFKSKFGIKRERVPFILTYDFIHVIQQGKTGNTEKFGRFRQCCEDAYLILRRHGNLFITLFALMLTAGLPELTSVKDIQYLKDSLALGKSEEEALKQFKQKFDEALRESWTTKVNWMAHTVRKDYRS

Compound | IC50 [1] | IC50 [2] | IC50 [3] | IC50 [4] | IC50 [5] | IC50 [6] | inhibition [7] | inhibition [8] | inhibition [9] | inhibition [10] | IC50 [11] | IC50 [12] | inhibition [13] | inhibition [14] | inhibition [15] | Activity [16] | Activity [17] | Activity [18] | Activity [19] | Activity [20] | further results
C[C@H]1COCCN1c1cc(-c2ccc(NC(=O)Nc3ccncc3)cc2)nn2ccnc12 | 0.02 µM | 5.8 µM | 13.1 µM | 7.4 µM | 0.67 µM | 5.2 µM | 64% | 33% | 39% | 29% | 3.11 µM | 0.062 µM | Dose-dependent effect | Active | Active | 50.95% | 13.86% | 35.19% | 89.9% | 3.7% | Activity [21]: 6.3%; Activity [22]: 0%
C[C@H]1COCCN1c1cc(-c2ccc(NC(=O)Nc3cccnc3)cc2)nn2ccnc12 | 0.05 µM | 11.3 µM | 40 µM | 13.5 µM | 0.47 µM | 9 µM | 59% | 24% | 40% | 19% | 4.42 µM | 0.067 µM | Dose-dependent effect | Active | Active | 55.32% | 7.61% | 33.07% | 87.8% | 3.5% | Activity [21]: 8.8%; Activity [22]: 0%; inhibition in vivo at 30 mg/kg [23]: 37.8%; Activity [24]: Non-Toxic; Activity [25]: Non-Toxic
